# Key:
# [1] = Solubilizer screen for nintedanib (Example 3); assay type: physicochemical; conditions: for pH: pH of filtrate
# Protocol: Tare 1.5 mL Eppendorf tube 2. […] Add solubilizer and record weight 4. Add water pH 5 (except F3 & F4) and record weight 5. Beadbeater mix for 120 seconds […] Place on rotating mixer for overnight at ambient temperature 7. Filter through 0.2 μm SPIN-X centrifuge filter 8. Measure pH of filtrate 9. Assay filtrate using CBT-001 standard solution
# [2] = Solubility of nintedanib in a representative emulsion system (F70); assay type: physicochemical; conditions: aqueous with cosolvent or surfactant or cyclodextrin; emulsion system: castor oil 1, polysorbate 80 1, polyoxyl-35 castor oil 2, water 95, none in Table 6
# Excerpt: Various emulsion systems were identified for investigation based on the solubilizer results.
smiles,measurement,setting,value
COC(=O)c1ccc2c(c1)NC(=O)/C2=C(\Nc1ccc(N(C)C(=O)CN2CCN(C)CC2)cc1)c1ccccc1 [nintedanib],pH,[1]; solubilizer BZA,5.6
same,pH,[1]; solubilizer BZK,5.6
same,pH,[1]; solubilizer EtOH,6.1
same,pH,[1]; solubilizer PEG 400,5.6
same,pH,[1]; solubilizer PEG 8000,6.0
same,pH,[1]; solubilizer PG,6.0
same,pH,[1]; solubilizer PLXMR 188,6.5
same,pH,[1]; solubilizer PLXMR 407,6.3
same,pH,[1]; solubilizer polysorbate 20,6.6
same,pH,[1]; solubilizer polysorbate 80,6.7
same,Nintedanib solubility,"[1]; solubilizer BZA (1% benzyl alcohol in water, F-1)",0.01 mg/g
same,Nintedanib solubility,"[1]; solubilizer BZK (1% in water, F-5)",0.20 mg/g
same,Nintedanib solubility,"[1]; solubilizer Castor oil (99.5%, F-3)",0.37 mg/g
same,Nintedanib solubility,"[1]; solubilizer EtOH (1% ethanol in water, F-2)",0.01 mg/g
same,Nintedanib solubility,"[1]; solubilizer Mineral oil (99.5%, F-4)",0.00 mg/g
same,Nintedanib solubility,"[1]; solubilizer PEG 400 (5% in water, F-10)",0.17 mg/g
same,Nintedanib solubility,"[1]; solubilizer PEG 8000 (2% in water, F-11)",0.01 mg/g
same,Nintedanib solubility,"[1]; solubilizer PG (1% propylene glycol in water, F-12)",0.01 mg/g
same,Nintedanib solubility,"[1]; solubilizer PLXMR 188 (1% Poloxamer 188 in water, F-8)",0.01 mg/g
same,Nintedanib solubility,"[1]; solubilizer PLXMR 407 (1% Poloxamer 407 in water, F-9)",0.01 mg/g
same,Nintedanib solubility,"[1]; solubilizer polysorbate 20 (1% in water, F-6)",0.06 mg/g
same,Nintedanib solubility,"[1]; solubilizer polysorbate 80 (1% in water, F-7)",0.25 mg/g
same,solubility,[2],3000 to 5000 µg/mL

# — patent US11666533B2, “Emulsion formulations of multikinase inhibitors” (Cloudbreak Therapeutics, LLC, priority 2018, dated 2023)
